From paper PMC8776995 (Frontiers in Chemistry, 2022)
Several values for one entry are separate records, joined by “and”; a condition that tells them apart may be missing. Equal entries are not always repeated. Where two headings read alike, the source gives them in different places.

Experiments:
PC-9 cells = test: CCK-8 antiproliferation assay, PC-9; conditions: for IC50: PC-9, 48 h, read-out: IC50 (μM) PC-9; for inhibition at 4 µM: PC-9, read-out: Inhibitory efficacy, PC-9, 4uM, single repeats (Repeat 1-3), given as fraction; for inhibition at 16 µM: PC-9, read-out: Inhibitory efficacy, PC-9, 16uM, single repeats (Repeat 1-3), given as fraction; for Inhibitory efficacy: single repeats (Repeat 1-3), given as fraction
H460 cells = test: CCK-8 antiproliferation assay, H460
A549 cells = test: CCK-8 antiproliferation assay, A549; conditions: for Inhibitory efficacy: A549 cells; for Inhibitory efficacy / inhibition at 1 µM / inhibition at 2 µM / inhibition at 4 µM / inhibition at 8 µM / inhibition at 16 µM: given as fraction, Repeat 1-3; for inhibition at 1 µM / inhibition at 2 µM / inhibition at 4 µM / inhibition at 8 µM / inhibition at 16 µM: A549, read-out: Inhibitory efficacy, A549 cells
wild-type EGFR = wild-type EGFR (Homo sapiens, UniProt P00533); test: EGFR kinase assay (ELISA); conditions: for IC50: IC50 (μM) EGFR, ELISA, 3 μmol/L ATP; for A450: raw ELISA absorbance
Procedure: The kinase enzyme of EGFR was purchased from Carna Bioscience (Kobe, Japan). A total of 10 ng/ml anti phosphotyrosine (PY713) antibody (abcam, Cambridge Science Park, United Kingdom) was precoated in 96-well ELISA plates. […] Then, a total of 3 μmol/L ATP was added and the reaction was continued for 2 h. […] After incubation, the wells were washed with PBS and then incubated with horseradish peroxidase (HRP)-conjugated streptavidin. The wells were visualized using 3,3′,5,5′-tetramethylbenzidine (TMB), and chromogenic reaction was ended with 2 mol/L H2SO4, the absorbance was read with a multimode plate reader (PerkinElmer, United States) at 450 nm.

H1975 cells = test: CCK-8 antiproliferation assay, H1975; conditions: for Inhibitory efficacy: H1975 cells
[1] = 1uM, given as fraction, Repeat 1-3
[2] = 4uM, given as fraction, Repeat 1-3
[3] = 8uM, given as fraction, Repeat 1-3
[4] = 16uM, given as fraction, Repeat 1-3
[5] = Homo sapiens, NCI-H1975, 48 h, read-out: IC50 (μM) H1975, CCK-8, 48 h, average ± SD of three independent experiments
[6] = Homo sapiens, NCI-H1975, read-out: Inhibitory efficacy, H1975 cells, 1uM, given as fraction, Repeat 1-3
[7] = Homo sapiens, NCI-H1975, read-out: Inhibitory efficacy, H1975 cells, 4uM, given as fraction, Repeat 1-3
[8] = Homo sapiens, NCI-H1975, read-out: Inhibitory efficacy, H1975 cells, 8uM, given as fraction, Repeat 1-3
[9] = Homo sapiens, NCI-H1975, read-out: Inhibitory efficacy, H1975 cells, 16uM, given as fraction, Repeat 1-3

wild-type EGFR, sequence (P00533 25-1210): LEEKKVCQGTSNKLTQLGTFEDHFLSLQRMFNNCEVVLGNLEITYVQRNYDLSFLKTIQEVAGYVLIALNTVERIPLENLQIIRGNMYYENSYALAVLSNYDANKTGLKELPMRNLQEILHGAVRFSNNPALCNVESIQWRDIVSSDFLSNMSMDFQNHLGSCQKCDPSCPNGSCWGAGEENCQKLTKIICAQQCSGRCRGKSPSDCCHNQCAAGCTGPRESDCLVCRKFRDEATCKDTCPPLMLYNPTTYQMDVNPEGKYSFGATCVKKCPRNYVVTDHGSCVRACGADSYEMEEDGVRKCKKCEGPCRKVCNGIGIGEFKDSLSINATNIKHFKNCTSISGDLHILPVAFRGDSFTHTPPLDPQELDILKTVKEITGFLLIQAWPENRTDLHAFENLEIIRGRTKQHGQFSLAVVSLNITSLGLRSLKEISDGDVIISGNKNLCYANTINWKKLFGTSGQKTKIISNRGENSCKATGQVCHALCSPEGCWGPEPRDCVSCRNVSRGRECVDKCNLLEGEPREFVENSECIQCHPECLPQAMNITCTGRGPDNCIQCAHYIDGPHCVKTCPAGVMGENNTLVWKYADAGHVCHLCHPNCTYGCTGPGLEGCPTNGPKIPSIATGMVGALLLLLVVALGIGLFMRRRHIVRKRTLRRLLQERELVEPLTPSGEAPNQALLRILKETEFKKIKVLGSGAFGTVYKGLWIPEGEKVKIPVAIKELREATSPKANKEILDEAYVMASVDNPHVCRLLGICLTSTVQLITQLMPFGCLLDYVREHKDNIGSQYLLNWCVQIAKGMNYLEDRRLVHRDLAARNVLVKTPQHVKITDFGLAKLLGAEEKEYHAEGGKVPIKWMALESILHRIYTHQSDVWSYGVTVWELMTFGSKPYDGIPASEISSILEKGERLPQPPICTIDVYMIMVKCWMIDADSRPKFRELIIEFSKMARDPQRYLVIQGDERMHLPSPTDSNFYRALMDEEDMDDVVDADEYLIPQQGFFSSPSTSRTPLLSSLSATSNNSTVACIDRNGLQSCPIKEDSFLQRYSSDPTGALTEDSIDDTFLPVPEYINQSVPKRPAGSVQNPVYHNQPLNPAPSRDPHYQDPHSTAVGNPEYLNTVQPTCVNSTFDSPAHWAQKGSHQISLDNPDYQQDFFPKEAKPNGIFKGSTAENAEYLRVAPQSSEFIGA

## COCCOc1cc2ncnc(Nc3cccc(-c4cn(-c5ccc(Br)cc5)nn4)c3)c2cc1OCCOC [e10, [6,7-Bis-(2-methoxy-ethoxy)-quinazolin-4-yl]-{3-[1-(4-bromo-phenyl)-1H-[1,2,3]triazol-4-yl]-phenyl}-amine]
other
  melting point: 105 to 108 °C
PC-9 cells; Homo sapiens
  IC50: > 100 µM
  inhibition at 4 µM: 11.7%
  inhibition at 16 µM: 13.3%
PC-9 cells; PC-9, 4uM, 4 µM
  Inhibitory efficacy: 0.1333 and 0.0912
PC-9 cells; PC-9, 16uM, 16 µM
  Inhibitory efficacy: 0.1218 and 0.1916
H460 cells; H460 cells, 2uM, given as fraction, Repeat 1-3
  Inhibitory efficacy: 0.07707 and 0.09653
H460 cells; H460 cells, 8uM, given as fraction, Repeat 1-3
  Inhibitory efficacy: 0.3228 and 0.2533
H460 cells; H460 cells, 16uM, given as fraction, Repeat 1-3
  Inhibitory efficacy: 0.4853 and 0.4952
H460 cells; Homo sapiens, NCI-H460, 48 h, read-out: IC50 (μM) H460, CCK-8, 48 h, average ± SD of three independent experiments
  IC50: 15 ± 2.1 µM
H460 cells; Homo sapiens, NCI-H460, read-out: Inhibitory efficacy, H460 cells, 2uM, given as fraction, Repeat 1-3
  inhibition at 2 µM: 6.52%
H460 cells; Homo sapiens, NCI-H460, read-out: Inhibitory efficacy, H460 cells, 8uM, given as fraction, Repeat 1-3
  inhibition at 8 µM: 25.3%
H460 cells; Homo sapiens, NCI-H460, read-out: Inhibitory efficacy, H460 cells, 16uM, given as fraction, Repeat 1-3
  inhibition at 16 µM: 60.6%
A549 cells; 1uM
  Inhibitory efficacy: 0.3506 and 0.4374
A549 cells; 2uM
  Inhibitory efficacy: 0.4836 and 0.5124
A549 cells; 4uM
  Inhibitory efficacy: 0.5136 and 0.5055
A549 cells; 8uM
  Inhibitory efficacy: 0.5695 and 0.5326
A549 cells; 16uM
  Inhibitory efficacy: 0.5501 and 0.5711
A549 cells; Homo sapiens, A549, 48 h, read-out: IC50 (μM) A549, CCK-8, 48 h, average ± SD of three independent experiments
  IC50: 3.77 ± 0.68 µM
A549 cells; Homo sapiens, 1uM
  inhibition at 1 µM: 35.9%
A549 cells; Homo sapiens, 2uM
  inhibition at 2 µM: 51.4%
A549 cells; Homo sapiens, 4uM
  inhibition at 4 µM: 50.2%
A549 cells; Homo sapiens, 8uM
  inhibition at 8 µM: 55.8%
A549 cells; Homo sapiens, 16uM
  inhibition at 16 µM: 59%
wild-type EGFR
  IC50: 2.13 µM
wild-type EGFR; concentration 0.03 nM, one value per replicate column
  inhibition at 30 pM: 4.76%
wild-type EGFR; concentration 0.03 nM, one value per replicate column, 3e-05 µM
  Inhibition: 5.109
wild-type EGFR; concentration 0.3 nM, one value per replicate column
  inhibition at 0.0003 µM: 11.4%
wild-type EGFR; concentration 0.3 nM, one value per replicate column, 0.0003 µM
  Inhibition: 10.9489
wild-type EGFR; concentration 3 nM, one value per replicate column
  inhibition at 0.003 µM: 15.7%
wild-type EGFR; concentration 3 nM, one value per replicate column, 0.003 µM
  Inhibition: 10.9489
wild-type EGFR; concentration 30 nM, one value per replicate column
  inhibition at 0.03 µM: 21.1%
wild-type EGFR; concentration 30 nM, one value per replicate column, 0.03 µM
  Inhibition: 11.3139
wild-type EGFR; concentration 300 nM, one value per replicate column
  inhibition at 0.3 µM: 36.5%
wild-type EGFR; concentration 300 nM, one value per replicate column, 0.3 µM
  Inhibition: 39.9635
wild-type EGFR; concentration 3000 nM, one value per replicate column
  inhibition at 3 µM: 38.4%
wild-type EGFR; concentration 3000 nM, one value per replicate column, 3 µM
  Inhibition: 48.1752
wild-type EGFR; concentration 30000 nM, one value per replicate column
  inhibition at 30 µM: 78.1%
wild-type EGFR; concentration 30000 nM, one value per replicate column, 30 µM
  Inhibition: 77.5547
wild-type EGFR; concentration 0.0001 nM
  A450: 0.787 and 0.697
wild-type EGFR; concentration 0.03 nM
  A450: 0.757 and 0.669
wild-type EGFR; concentration 0.3 nM
  A450: 0.715 and 0.637
wild-type EGFR; concentration 3 nM
  A450: 0.688 and 0.637
wild-type EGFR; concentration 30 nM
  A450: 0.654 and 0.635
wild-type EGFR; concentration 300 nM
  A450: 0.557 and 0.478
wild-type EGFR; concentration 3000 nM
  A450: 0.545 and 0.433
wild-type EGFR; concentration 30000 nM
  A450: 0.295 and 0.272
H1975 cells; [1]
  Inhibitory efficacy: 0.3092 and 0.3364
H1975 cells; 2uM, given as fraction, Repeat 1-3
  Inhibitory efficacy: 0.3838 and 0.3364
H1975 cells; [2]
  Inhibitory efficacy: 0.4598 and 0.4892
H1975 cells; [3]
  Inhibitory efficacy: 0.5696 and 0.4885
H1975 cells; [4]
  Inhibitory efficacy: 0.5545 and 0.4835
H1975 cells; [5]
  IC50: 6.36 ± 4.21 µM
H1975 cells; [6]
  inhibition at 1 µM: 39.4%
H1975 cells; Homo sapiens, NCI-H1975, read-out: Inhibitory efficacy, H1975 cells, 2uM, given as fraction, Repeat 1-3
  inhibition at 2 µM: 33.8%
H1975 cells; [7]
  inhibition at 4 µM: 51.4%
H1975 cells; [8]
  inhibition at 8 µM: 54.1%
H1975 cells; [9]
  inhibition at 16 µM: 67.4%

## COCCOc1cc2ncnc(Nc3cccc(-c4cn(-c5ccccc5Br)nn4)c3)c2cc1OCCOC [e9, [6,7-Bis-(2-methoxy-ethoxy)-quinazolin-4-yl]-{3-[1-(2-bromo-phenyl)-1H-[1,2,3]triazol-4-yl]-phenyl}-amine]
other
  melting point: 93 to 97 °C
PC-9 cells; Homo sapiens
  IC50: 7.63 ± 1.69 µM
  inhibition at 4 µM: 42.1%
  inhibition at 16 µM: 54.2%
PC-9 cells; Homo sapiens, PC-9, read-out: Inhibitory efficacy, PC-9, 8uM, single repeats (Repeat 1-3), given as fraction
  inhibition at 8 µM: 57.9%
PC-9 cells; PC-9, 4uM, 4 µM
  Inhibitory efficacy: 0.4231 and 0.428
PC-9 cells; PC-9, 8uM, 8 µM
  Inhibitory efficacy: 0.5458 and 0.6686
PC-9 cells; PC-9, 16uM, 16 µM
  Inhibitory efficacy: 0.5655 and 0.5078
H460 cells; H460, 2uM, single repeats (Repeat 1-3), given as fraction, 2 µM
  Inhibitory efficacy: 0.3746 and 0.3508
H460 cells; H460, 4uM, single repeats (Repeat 1-3), given as fraction, 4 µM
  Inhibitory efficacy: 0.6113 and 0.6209
H460 cells; H460, 8uM, single repeats (Repeat 1-3), given as fraction, 8 µM
  Inhibitory efficacy: 0.7678 and 0.7392
H460 cells; H460, 16uM, single repeats (Repeat 1-3), given as fraction, 16 µM
  Inhibitory efficacy: 0.7559 and 0.7615
H460 cells; Homo sapiens, NCI-H460, read-out: Inhibitory efficacy, H460, 2uM, single repeats (Repeat 1-3), given as fraction
  inhibition at 2 µM: 40.3%
H460 cells; Homo sapiens, NCI-H460, read-out: Inhibitory efficacy, H460, 4uM, single repeats (Repeat 1-3), given as fraction
  inhibition at 4 µM: 72.6%
H460 cells; Homo sapiens, NCI-H460, read-out: Inhibitory efficacy, H460, 8uM, single repeats (Repeat 1-3), given as fraction
  inhibition at 8 µM: 76.5%
H460 cells; Homo sapiens, NCI-H460, read-out: Inhibitory efficacy, H460, 16uM, single repeats (Repeat 1-3), given as fraction
  inhibition at 16 µM: 77.3%
A549 cells; 1uM
  Inhibitory efficacy: 0.1197 and 0.1367
A549 cells; 2uM
  Inhibitory efficacy: 0.3287 and 0.2555
A549 cells; 4uM
  Inhibitory efficacy: 0.8462 and 0.8405
A549 cells; 8uM
  Inhibitory efficacy: 0.9628 and 0.9656
A549 cells; 16uM
  Inhibitory efficacy: 0.9642 and 0.9671
A549 cells; Homo sapiens, 1uM
  inhibition at 1 µM: 16%
A549 cells; Homo sapiens, 2uM
  inhibition at 2 µM: 26.7%
A549 cells; Homo sapiens, 4uM
  inhibition at 4 µM: 82.8%
A549 cells; Homo sapiens, 8uM
  inhibition at 8 µM: 95.9%
A549 cells; Homo sapiens, 16uM
  inhibition at 16 µM: 96.6%
wild-type EGFR; 0.3 nM, duplicate wells, calculated from A450
  inhibition at 0.0003 µM: 0.816%
wild-type EGFR; 0.3 nM, duplicate wells, calculated from A450, 0.0003 µM
  Inhibition: 0.7055
wild-type EGFR; 3000 nM, duplicate wells, calculated from A450
  inhibition at 3 µM: 41.4%
wild-type EGFR; 3000 nM, duplicate wells, calculated from A450, 3 µM
  Inhibition: 44.4444
wild-type EGFR; 30000 nM, duplicate wells, calculated from A450
  inhibition at 30 µM: 89.8%
wild-type EGFR; 30000 nM, duplicate wells, calculated from A450, 30 µM
  Inhibition: 89.9471
wild-type EGFR
  IC50: 3.83 µM
H1975 cells; [1]
  Inhibitory efficacy: 0.171 and 0.2074
H1975 cells; [2]
  Inhibitory efficacy: 0.4371 and 0.3791
H1975 cells; [3]
  Inhibitory efficacy: 0.5337 and 0.5679
H1975 cells; [4]
  Inhibitory efficacy: 0.6418 and 0.6475
H1975 cells; [5]
  IC50: < 10 µM
H1975 cells; [6]
  inhibition at 1 µM: 15.5%
H1975 cells; [7]
  inhibition at 4 µM: 37.6%
H1975 cells; [8]
  inhibition at 8 µM: 58%
H1975 cells; [9]
  inhibition at 16 µM: 66.8%
H1975 cells; read-out: IC50 (μM) H1975, CCK-8, 48 h, average ± SD of three independent experiments
  IC50: 6.86 ± 0.17 µM
